Data published in patent US11154858B2, “Microfluidic tissue development systems” (University of Pittsburgh—Of the Commonwealth System of …, priority 2015, dated 2021).

Tests used:
[1] = not told
From the text: The porosity and permeability of the latter have been estimated via Boyle's pycnometer and scanning electron microscopy (SEM) analysis.

[2] = system: chondrocytes in the cartilage chamber; assay: RT-PCR marker expression, chondrocyte response in cartilage (top) chamber of the bioreactor; type: cell-based; conditions: weeks 3 and 4 (1 nM estradiol + 10 nM progesterone; 0.1 nM estradiol + 50 nM progesterone)
Protocol: FIGS. 17-20 are graphs that show differential expression of markers (as determined by RT-PCR) for a control medium that contained no estrogen or progesterone (first bar), and then different concentrations of hormones supplied to one or the other of the bioreactor chambers during week 1 (w1: 0.1 nM estradiol), week 2 (w2: 1 nM estradiol), week 3 (w3: 1 nM estradiol and 10 nM progesterone), and week 4 (w4: 0.1 nM estradiol and 50 nM progesterone). […] FIGS. 17-18 show differential expression of markers (as determined by RT-PCR) for a control medium that contained no estrogen or progesterone (first bar), and then different concentrations of hormones supplied to the chambers during week 1 (w1: 0.1 nM estradiol), week 2 (w2: 1 nM estradiol), week 3 (w3: 1 nM estradiol and 10 nM progesterone), and week 4 (w4: 0.1 nM estradiol and 50 nM progesterone).

Molecule: poly-L-lactate [PLLA scaffold]
- Permeability [1]: 3.234e−09 m^2

Molecule: CC(=O)[C@H]1CC[C@H]2[C@@H]3CCC4=CC(=O)CC[C@]4(C)[C@H]3CC[C@]12C [progesterone]
- expression of cartilage anabolic markers, progesterone progressively added [2]: downregulation is still present
